The assay deals with T1, FGFR1 kinase (Homo sapiens, UniProt P11362).
T1 construct: purchased Upstate, USA
Nature of the assay: TR-FRET assay with FGFR1 kinase. The class given is biochemical. The conditions noted are these: 13 μM ATP; for IC50: dose response, read-out: IC50 of FGFR1 inhibition; for inhibition at 1 µM / Inhibition (%) of FGFR1 at 1000 nM: compound at 1000 nM. On the procedure:
1. Inhibition of FGFR1 kinase
Compounds were screened in the TR-FRET assay with FGFR1 kinase. 5 ng of FGFR1 [Upstate, USA] kinase was used for assay. The compound was incubated with the kinase for 30 minutes at room temperature. After the incubation, substrate mix [40 nM Ultra light poly GT (Perkin Elmer, USA) and 13 μM ATP (Sigma)] was added. The above reaction was stopped by the addition of 40 mM EDTA after the 30 min kinase reaction. The Eu-labelled antiphospho-tyrosine antibody [Perkin Elmer, USA] was added at 0.5 nM and the fluorescence emission at 615 nm/665 nm [excitation at 340 nm] was measured. The compounds were initially screened at 100 nM and 1 μM concentrations. The compounds with >50% inhibition at 100 nM of FGFR1 were taken for the full dose response studies. The final DMSO concentration in the assay was 1%. For IC50 determination, ⅓^rd serial dilution was made from the 20 mM DMSO stock solution. 2 μl of these were transferred to the test wells containing […] of the reaction mixture [total reaction volume 20 μl]. The fluorescence was measured in Perkin Elmer Wallac 1420 Multilabel Counter Victor 3. The IC50 was determined by fitting the dose response data to sigmoidal curve fitting equation using GraphPad Prism software V5.
For orientation: Time-resolved FRET reads energy transfer from a long-lived donor to a nearby acceptor.

Where a name gives a salt, the structure may show the parent alone.

The source of these data is US20160031855A1, “PROTEIN KINASE INHIBITORS” (ORION CORPORATION, priority 2013, published 2016).

T1 sequence (P11362 22-822): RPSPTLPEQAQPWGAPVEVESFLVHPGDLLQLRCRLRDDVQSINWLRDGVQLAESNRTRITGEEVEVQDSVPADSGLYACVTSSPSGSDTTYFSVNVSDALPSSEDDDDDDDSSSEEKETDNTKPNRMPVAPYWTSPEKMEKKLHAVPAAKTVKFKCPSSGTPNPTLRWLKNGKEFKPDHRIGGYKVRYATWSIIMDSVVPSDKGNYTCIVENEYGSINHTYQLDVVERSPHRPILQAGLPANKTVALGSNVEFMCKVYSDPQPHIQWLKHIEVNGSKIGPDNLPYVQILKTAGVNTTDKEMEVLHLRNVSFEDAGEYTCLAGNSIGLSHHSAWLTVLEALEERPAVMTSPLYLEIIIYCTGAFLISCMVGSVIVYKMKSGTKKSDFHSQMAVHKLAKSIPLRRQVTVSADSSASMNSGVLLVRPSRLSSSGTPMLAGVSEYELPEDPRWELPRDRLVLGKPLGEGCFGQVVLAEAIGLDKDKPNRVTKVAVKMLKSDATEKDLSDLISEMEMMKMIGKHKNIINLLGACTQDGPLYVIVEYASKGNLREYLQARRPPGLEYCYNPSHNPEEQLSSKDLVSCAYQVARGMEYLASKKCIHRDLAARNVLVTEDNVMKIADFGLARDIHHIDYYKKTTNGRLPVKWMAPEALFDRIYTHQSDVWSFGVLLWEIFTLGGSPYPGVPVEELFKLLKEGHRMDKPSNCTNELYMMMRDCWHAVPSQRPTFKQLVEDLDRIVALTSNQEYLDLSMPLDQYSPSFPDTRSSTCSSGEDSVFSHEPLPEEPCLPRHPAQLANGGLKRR

A word on the IC50: it is the midpoint of a concentration-inhibition curve. A word on the inhibition: it is the drop in the measured response relative to a control, in per cent. A high value points to a strong effect. As to `Cn1cc(-c2ccc3c(c2)ncn3-c2cc(-c3ccc(F)cc3F)cc(NS(=O)(=O)C3CC3)n2)nn1` [Example 36, N-(4-(2,4-difluorophenyl)-6-(5-(1-methyl-1H-1,2,3-triazol-4-yl)-1H-benzo[d]-imidazol-1-yl)pyridin-2-yl)cyclopropanesulfonamide], the IC50 is 4.7 nM and the inhibition at 1 µM worked out at 99%.
`CCS(=O)(=O)Nc1cc(-c2ccc(F)cc2F)cc(-n2cnc3cc(-c4cnn(C)c4)ccc32)n1` [Example 5 (imido), Sodium salt of imido form of N-(4-(2,4-difluorophenyl)-6-(5-(1-methyl-1H-pyrazol-4yl)-1H-benzo[d]imidazol-1-yl)pyridin-2-yl)ethanesulfonamide]: the IC50 stood at 4.4 nM and the “Inhibition (%) of FGFR1 at 1000 nM” value came out at 98%.
On to `Cn1cc(-c2ccc3c(c2)ncn3-c2cc(-c3ncc(F)cc3F)cc(NS(=O)(=O)C3CC3)n2)cn1` [Example 25, N-(3,5-difluoro-6′-(5-(1-methyl-1H-pyrazol-4-yl)-1H-benzo[d]imidazol-1-yl)-[2,4′-bipyridin]-2′-yl)cyclopropanesulfonamide], for which the IC50 stood at 3.1 nM and the inhibition at 1 µM came out at 97%.
`Cn1cc(-c2ccc3c(c2)ncn3-c2cc(-c3ccc(F)cc3F)cc(NS(=O)(=O)C3CC3)n2)cn1` [Example 2 (imido), Sodium salt of imido form of N-(4-(2,4-difluorophenyl)-6-(5-(1-methyl-1H-pyrazol-4-yl)-1H-benzo[d]imidazol-1-yl)pyridin-2-yl)cyclopropanesulfonamide]: the IC50 came out at 3.3 nM and the “Inhibition (%) of FGFR1 at 1000 nM” value is listed as 97%.
Take `CC(C)S(=O)(=O)Nc1cc(-c2ccccc2F)cc(-n2cnc3cc(-c4cnn(C)c4)ccc32)n1` [Example 12 (imido), Sodium salt of imido form of N-(4-(2-fluorophenyl)-6-(5-(1-methyl-1H-pyrazol-4-yl)-1H-benzo[d]imidazol-1-yl)pyridin-2-yl)propane-2-sulfonamide]: the IC50 worked out at 5.2 nM and the “Inhibition (%) of FGFR1 at 1000 nM” value came out at 99%.
With `CCS(=O)(=O)Nc1cc(-c2ccc(F)cc2F)cc(-n2cnc3cc(-c4cnn(C)c4)ccc32)n1` [Example 5, N-(4-(2,4-difluorophenyl)-6-(5-(1-methyl-1H-pyrazol-4-yl)-1H-benzo[d]-imidazol-1-yl)pyridin-2-yl)ethanesulfonamide], the IC50 was 1.1 nM and the inhibition at 1 µM was determined as 99%.
On the same counts, the results for `O=S(=O)(Nc1cc(-c2ccc(F)cc2F)cc(-n2cnc3cc(-n4cccn4)ccc32)n1)C1CC1` [Example 23, N-(6-(5-(1H-pyrazol-1-yl)-1H-benzo[d]imidazol-1-yl)-4-(2,4-difluorophenyl)-pyridin-2-yl)cyclopropanesulfonamide] are 10 nM and 97%.
On the same counts, the results for `Cn1cc(-c2ccc3c(c2)ncn3-c2cc(-c3ccccc3F)cc(NS(C)(=O)=O)n2)cn1` [Example 10, N-(4-(2-fluorophenyl)-6-(5-(1-methyl-1H-pyrazol-4-yl)-1H-benzo[d]imidazol-1-yl)pyridin-2-yl)methanesulfonamide] are 5.8 nM and 97%.
With `O=S(=O)(Nc1cc(-c2ccc(F)cc2F)cc(-n2cnc3cc(-c4cnn(C5CCNC5)c4)ccc32)n1)C1CC1` (stereo not shown) [Example 34, N-(4-(2,4-difluorophenyl)-6-(5-(1-(pyrrolidin-3-yl)-1H-pyrazol-4-yl)-1H-benzo[d]imidazol-1-yl)pyridin-2-yl)cyclopropanesulfonamide], the IC50 came out at 1.6 nM and 1 µM produced 99% inhibition.
As for `CC(C)S(=O)(=O)Nc1cc(-c2ccc(F)cc2)cc(-n2cnc3cc(-c4cnn(C)c4)ccc32)n1` [Example 17 (imido), Sodium salt of imido form: of N-(4-(4-fluorophenyl)-6-(5-(1-methyl-1H-pyrazol-4-yl)-1H-benzo[d]imidazol-1-yl)pyridin-2-yl)propane-2-sulfonamide], the IC50 was 5.2 nM and the “Inhibition (%) of FGFR1 at 1000 nM” value stood at 97%.
Regarding `Cn1cc(-c2ccc3c(c2)ncn3-c2cc(-c3ccc(F)cc3F)cc(Nc3ccn(C)n3)n2)cn1` [Example 1, 4-(2,4-Difluorophenyl)-N-(1-methyl-1H-pyrazol-3-yl)-6-(5-(1-methyl-1H-pyrazol-4-yl)-1H-benzo[d]imidazol-1-yl)pyridin-2-amine], the IC50 came to 16.5 nM and the inhibition at 1 µM was 97%.
For `CC(C)S(=O)(=O)Nc1cc(-c2ccc(F)cc2F)cc(-n2cnc3cc(-c4cnn(C)c4)ccc32)n1` [Example 6 (imido), Imido form of N-(4-(2,4-difluorophenyl)-6-(5-(1-methyl-1H-pyrazol-4-yl)-1H-benzo[d]imidazol-1-yl)pyridin-2-yl)propane-2-sulfonamide], the IC50 turned out to be 1.7 nM and the “Inhibition (%) of FGFR1 at 1000 nM” value is 98%.
Regarding `Cn1cc(-c2ccc3c(c2)ncn3-c2cc(-c3ccccc3F)nc(NS(=O)(=O)C3CC3)n2)cn1` [Example 22, N-(4-(2-fluorophenyl)-6-(5-(1-methyl-1H-pyrazol-4-yl)-1H-benzo[d]imidazol-1-yl)pyrimidin-2-yl)cyclopropanesulfonamide], the IC50 was determined as 9.2 nM and at 1 µM the inhibition was 97%.
On the same counts, the results for `Cn1cc(-c2ccc3c(c2)ncn3-c2cc(-c3ccc(F)cc3F)cc(NS(=O)(=O)C3CC3)n2)cn1` [Example 2, N-(4-(2,4-difluorophenyl)-6-(5-(1-methyl-1H-pyrazol-4-yl)-1H-benzo[d]-imidazol-1-yl)pyridin-2-yl)cyclopropanesulfonamide] are 3.9 nM and 99%.
The corresponding values for `Cn1cc(-c2ccc3c(c2)ncn3-c2cc(-c3ccc(F)cn3)cc(NS(=O)(=O)C3CC3)n2)cn1` [Example 30, N-(5-fluoro-6′-(5-(1-methyl-1H-pyrazol-4-yl)-1H-benzo[d]imidazol-1-yl)-[2,4′-bipyridin]-2′-yl)cyclopropanesulfonamide] are 24 nM and 96%.
On the same counts, the results for `Cn1cc(-c2ccc3c(c2)ncn3-c2cc(-c3ccc(F)cc3F)cc(NS(C)(=O)=O)n2)cn1` [Example 4, N-(4-(2,4-difluorophenyl)-6-(5-(1-methyl-1H-pyrazol-4-yl)-1H-benzo[d]-imidazol-1-yl)pyridin-2-yl)methanesulfonamide] are 4.3 nM and 98%.
Regarding `O=S(=O)(Nc1cc(-c2ccc(F)cc2F)cc(-n2cnc3cc(-n4ccnc4)ccc32)n1)C1CC1` [Example 32, N-(6-(5-(1H-imidazol-1-yl)-1H-benzo[d]imidazol-1-yl)-4-(2,4-difluorophenyl)-pyridin-2-yl)cyclopropanesulfonamide], the IC50 was 21.7 nM and at 1 µM the inhibition was 99%.
On the same counts, the results for `Cn1cc(-c2ccc3c(c2)ncn3-c2cc(-c3ccc(F)cc3)cc(NS(C)(=O)=O)n2)cn1` [Example 16, N-(4-(4-fluorophenyl)-6-(5-(1-methyl-1H-pyrazol-4-yl)-1H-benzo[d]imidazol-1-yl)pyridin-2-yl)methanesulfonamide] are 3.4 nM and 97%.
On the same counts, the results for `Cn1cc(-c2ccc3c(c2)ncn3-c2cc(NS(=O)(=O)C3CC3)nc(-c3ccc(F)cc3F)c2)cn1` [Example 43, N-(6-(2,4-difluorophenyl)-4-(5-(1-methyl-1H-pyrazol-4-yl)-1H-benzo[d]-imidazol-1-yl)pyridin-2-yl)cyclopropanesulfonamide] are 43.4 nM and 94%.
On the same counts, the results for `CCOC(=O)c1cn(-c2ccc3c(c2)ncn3-c2cc(-c3ccc(F)cc3F)cc(NS(=O)(=O)C3CC3)n2)nn1` [Example 39, Ethyl 1-(1-(6-(cyclopropanesulfonamido)-4-(2,4-difluorophenyl)pyridin-2-yl)-1H-benzo[d]imidazol-5-yl)-1H-1,2,3-triazole-4-carboxylate] are 294 nM and 81%.
Turning to `Cn1cc(-c2ccc3c(c2)ncn3-c2cc(-c3ccc(F)cc3OC(F)F)cc(NS(=O)(=O)C3CC3)n2)cn1` [Example 40, N-(4-(2-(difluoromethoxy)-4-fluorophenyl)-6-(5-(1-methyl-1H-pyrazol-4-yl)-1H-benzo[d]imidazol-1-yl)pyridin-2-yl)cyclopropanesulfonamide], the IC50 was determined as 293 nM and testing at 1 µM gave an inhibition of 76%.
The corresponding values for `CCn1cc(-c2ccc3c(c2)ncn3-c2cc(-c3ccc(F)cc3F)cc(NS(=O)(=O)C3CC3)n2)nn1` [Example 35, N-(4-(2,4-difluorophenyl)-6-(5-(1-ethyl-1H-1,2,3-triazol-4-yl)-1H-benzo[d]-imidazol-1-yl)pyridin-2-yl)cyclopropanesulfonamide] are 2 nM and 99%.
On the same counts, the results for `CC(=O)Nc1cc(-c2ncccc2F)cc(-n2cnc3cc(-c4cnn(C)c4)ccc32)n1` [Example 19, N-(3-fluoro-6′-(5-(1-methyl-1H-pyrazol-4-yl)-1H-benzo[d]imidazol-1-yl)-[2,4′-bipyridin]-2′-yl)acetamide] are 28.5 nM and 96%.
